{"source": "patent US20230416329A1", "about": "“A PEPTIDE WITH DISULFIDE BONDS AND INHIBITORY ACTIVITY AGAINST SERINE PROTEASES, DERIVED HYBRID PEPTIDES THEREOF, AND USES THEREOF” (INSTITUTE OF MATERIA MEDICA , CHINESE ACADEMY OF MEDICAL …, priority 2020, published 2023)", "biological_target": "α-chymotrypsin (Bos taurus, UniProt P00766)", "experiment": "Chymotrypsin inhibitory activity of peptides (AAPFpNA hydrolysis; IC50, Ki, residual activity)", "type": "biochemical", "details": "for Ki: Ki=IC50/(1+S/Km), Km 0.38 mM; for IC50: chymotrypsin 30 nM, AAPFpNA 0.5 mM", "how_it_was_run": "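Peptide preincubated 10 min at 37 °C with 30 nM α-chymotrypsin in 50 mM Tris-HCl pH 7.8, 20 mM CaCl2; 0.5 mM AAPFpNA then added and A405 read after 90 min. Residual activity versus controls gave IC50; Ki = IC50/(1+S/Km), with Km measured separately.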", "note": "Bridge positions count the residues as written; N and C are the ends. Square brackets hold non-standard residues; d marks the D form. Peptide text beside a SMILES is read from it. Hyp = O=C(O)[C@@H]1C[C@@H](O)CN1"}
{"smiles": "CC[C@H](C)[C@@H]1NC(=O)[C@H](CO)NC(=O)[C@H](Cc2ccc(O)cc2)NC(=O)[C@H]([C@@H](C)O)NC(=O)[C@@H](NC(=O)[C@@H]2CCCN2)CSSC[C@@H](C(=O)N[C@@H](Cc2ccc(O)cc2)C(=O)O)NC(=O)[C@H](CCC(N)=O)NC(=O)[C@@H]2CCCN2C(=O)[C@@H]2CCCN2C1=O", "note": "[CH51] (H-PCTYSIPPQCY-OH; disulfide 2-10; N-terminus and C-terminus assumed)", "values": [{"measurement": "inhibitory activity against chymotrypsin (in words)", "result": "good chymotrypsin inhibitory activity"}]}
{"smiles": "CC[C@H](C)[C@@H]1NC(=O)[C@H](CO)NC(=O)[C@H](Cc2ccc(O)cc2)NC(=O)[C@H]([C@@H](C)O)NC(=O)[C@@H](NC(=O)[C@@H](N)Cc2ccccc2)CSSC[C@@H](C(=O)N[C@@H](Cc2ccc(O)cc2)C(=O)NCC(=O)O)NC(=O)[C@H](CCC(N)=O)NC(=O)[C@@H]2C[C@@H](O)CN2C(=O)[C@@H]2CCCN2C1=O", "note": "[CH52] (H-FCTYSIP[Hyp]QCYG-OH; disulfide 2-10)", "values": [{"measurement": "Ki", "result": 360, "unit": "nM"}, {"measurement": "IC50", "result": 840, "unit": "nM"}]}
{"smiles": "CC[C@H](C)[C@@H]1NC(=O)[C@H](CO)NC(=O)[C@H](Cc2ccc(O)cc2)NC(=O)[C@H]([C@@H](C)O)NC(=O)[C@@H](NC(=O)[C@@H](N)Cc2ccccc2)CSSC[C@@H](C(=O)N[C@@H](Cc2ccc(O)cc2)C(=O)NCC(=O)O)NC(=O)[C@H](CCC(N)=O)NC(=O)[C@@H]2CCCN2C(=O)[C@@H]2C[C@@H](O)CN2C1=O", "note": "[CH53, FCTYSIHypPQCYG] (H-FCTYSI[Hyp]PQCYG-OH; disulfide 2-10; C-terminus assumed)", "values": [{"measurement": "inhibitory activity against chymotrypsin (in words)", "result": "good chymotrypsin inhibitory activity"}, {"measurement": "Ki", "result": 110, "unit": "nM"}, {"measurement": "IC50", "result": 250, "unit": "nM"}]}
